From US7265245B2, “Compounds useful for the treatment of diseases associated with the formation of amyloid fibrils” (Innovaprotean, S.L, priority 2003, dated 2007)

Target: Y78F hTTR mutant (Homo sapiens, UniProt P02766, Y98F)
Experiment: turbidimetric test of amyloidogenesis (fibril formation) inhibiting activity in vitro
Format: biochemical
Details: for RA (%): % reduction of the rate of aggregation at high inhibitor concentration: RA(%)=(1−A/(A+B))·100, compared with the rate in the absence of inhibitor; for IC50: inhibitor concentration at which the aggregation was half that in the absence of inhibitor, 0 to 40 μM inhibitor, 37° C., acid-induced (dilution buffer pH 4.2); for Ψ: initial slope of curve v0 versus [I]: sensitivity of the aggregation process to the inhibitor, higher = greater inhibiting effect
Method: The compounds to be tested as inhibitors were dissolved in DMSO at a concentration of 1.5 mM. The working solution was prepared by 1 to 4 dilution of the previous solution in a water/DMSO mixture (2:1). […] The incubation buffer was 10 mM sodium phosphate, 100 mM potassium chloride, 1 mM EDTA, […]. The dilution buffer was 400 mM sodium acetate, 100 mM potassium chloride, 1 mM EDTA, pH 4.2. The test protocol for an inhibitor was as follows: 20 μl of the protein solution was dispensed in 7 wells of a 96-well microplate. Different volumes of the inhibitor working solution were added to each of the wells to obtain end concentrations of 0 to 40 μM. Incubation buffer was then added to each well up to an end volume of 100 μl. The microplate was incubated at 37° C. in the microplate reader provided with thermostatting and stirring. Incubation proceeded for 30 min at 37° C. with stirring for 15 seconds every minute. 100 μl of dilution buffer was then added to every well, and the mixture was incubated at 37° C. with stirring for 15 seconds every minute in the microplate reader and absorbance was monitored at 330 nm for 1 hour 30 minutes at intervals of 1 minute. The data of absorbance versus time for every well were collected and analysed with the Microsoft Excel program. All tests were done in duplicate.
1.—Initial fibril formation rate. From the absorbance readings at 330 nm with the incubation time for every well, the initial fibril formation rate was calculated as the slope of the initial linear portion of the curve. Thus, the aggregation rate was obtained at every inhibitor concentration. 2.—Aggregation rate versus inhibitor concentration.
The adjusted parameters were: A (in units of absorbance per hour), residual aggregation rate at high inhibitor concentration; B (in units of absorbance per hour), amplitude or maximum reduction of the aggregation rate; and C (in μM^−1) the exponential constant. A+B was the aggregation rate in the absence of inhibitor (maximum aggregation rate). From these parameters, other parameters were extracted that characterised every inhibitor with regard to its capacity and effectiveness in inhibiting fibril formation: • IC50: inhibitor concentration (μM) at which the aggregation was half that in the absence of inhibitor; • Ψ: initial slope of curve v0 versus [I], which reflected the sensitivity of the aggregation process to the inhibitor.

Compound | RA (%): % reduction of the rate of aggregation at high inhibitor concentration | IC50 | Ψ: initial slope of curve v0 versus [I]
NC(=O)c1cc(-c2ccc(F)cc2F)ccc1O [Diflunisal amide] | 10% | > 100 µM | 0.009 UA · hr^−1 · μM^−1
O=C(O)CNC(=O)c1cc(-c2ccc(F)cc2F)ccc1O [Diflunisal glycine] | 28% | > 100 µM | 0.011 UA · hr^−1 · μM^−1
COC(=O)c1cc(-c2ccc(F)cc2F)ccc1O [Diflunisal methylester] | 24% | > 100 µM | 0.011 UA · hr^−1 · μM^−1
O=C(O)c1cc(-c2ccc(F)cc2F)ccc1O [Diflunisal, 5-(2,4-difluorophenyl)salicylic acid] | 84% |  | 0.036 UA · hr^−1 · μM^−1
NC(=O)c1cc(-c2ccc(F)cc2F)cc(I)c1O [Iododiflunisalamide, 5-(2,4-difluorophenyl)-3-iodo-salicylamide] | 84% | 11.7 µM | 0.041 UA · hr^−1 · μM^−1
COC(=O)c1cc(-c2ccc(F)cc2F)cc(I)c1O [Iododiflunisalmethyl ester, methyl 5-(2,4-difluorophenyl)-3-iodo-salicylate] | 98% | 16.7 µM | 0.027 UA · hr^−1 · μM^−1
N-[5-(2,4-difluorophenyl)-3-iodo-salicyloyl]glycine [Iododiflunisalglycine] | 100% | 11.2 µM | 0.040 UA · hr^−1 · μM^−1
